Experimental data reported in patent publication US9247750B2, “Polyenylcyclopropanecarboxylic esters with high insecticidal activity” (Endura S.P.A., priority 2007, dated 2016).

Legend:
Assay type in all cases: in vivo
Aedes aegypti [1] = assay: Insecticide effectiveness in the vapour phase against mosquitoes, impregnated paper unit in 20 m^3 room (Example 9); settings: 5 mg/unit; for % mortality 24 h: 24th hour from start of test; for % Knock-down 8 h: at end of 8th hour; for Knock-down time KT10 / Knock-down time KT50 / Knock-down time KT90: average of 3 cages
Method: (§1) Test units consisting of a paper support 20 cm×10 cm in size were impregnated with the compound of examples 3, 7 and 8 and, for comparative purposes, with the reference compounds transfluthrin and metofluthrin, at an amount of 5.00 mg/unit for each compound (pure). Using a common laboratory stand, the test unit was placed at a height of about 30 cm from the ground along one side of a 20 m^3 room (L 3.00 m×D 2.49 m×H 2.69 m). In order to homogenize the insecticidal air within the room, a small electric fan was placed on the floor diagonal to the surface of the unit, in the nearest corner at a distance of about 50 cm from the unit. Three metal cages (L 8.4 cm×Ø 8.0 cm×mesh 1.0 mm) for every mosquito species, each containing 20 3-4 day old individuals of mixed sex, were placed along the other three sides of the room, at a height of 1.80 m from the ground and at a distance of 0.45 m from the respective walls. During the test the room was kept closed and temperature and humidity were controlled (T 23-26° C., RH 49-61%). The fan was switched on and left on for 8 continuous hours. The times needed to reach 10%, 50% and 90% insect knock-down (KT10, KT50 and KT90, respectively) were recorded.
(§2) Every 2 hours and up to the 6th hour after the fan was switched on, new cages were introduced containing insects (set of 3 cages for each species).
(§3) At the end of the 8th hour, the percentage of insects knocked down in all the cages was determined, then the insects were removed from the room and transferred into an uncontaminated atmosphere within closed containers containing a sugary solution. The percentage mortality was recorded at the 24th hour from the start of the test.
(§4) The results obtained are summarized in tables 1 and 2 and the data are averages for the 3 cages.

Culex quinquefasciatus [2] = assay: as above; settings: 5 mg/unit; for % mortality 24 h: 24th hour from start of test; for % Knock-down 8 h: at end of 8th hour; for Knock-down time KT10 / Knock-down time KT50 / Knock-down time KT90: average of 3 cages
Method: as §1, §2, §3, §4

Aedes aegypti [3] = assay: Insecticide effectiveness in the vapour phase against mosquitoes, impregnated paper unit in 20 m^3 room (Example 5); settings: 5 mg/unit; for % mortality 24 h: 24th hour from start of test; for % Knock-down 8 h: at end of 8th hour; for Knock-down time KT10 / Knock-down time KT50 / Knock-down time KT90: average of 3 cages
Method: (§5) Test units consisting of a paper support 20 cm×10 cm in size were impregnated with the compound of example 3 and, for comparative purposes, with the reference compounds transfluthrin and metofluthrin, at an amount of 5.00 mg/unit for each compound (pure).
(§6) Using a common laboratory stand, the test unit was placed at a height of about 30 cm from the ground along one side of a 20 m^3 room (L 3.00 m×D 2.49 m×H 2.69 m). In order to homogenize the insecticidal air within the room, a small electric fan was placed on the floor diagonal to the surface of the unit, in the is nearest corner at a distance of about 50 cm from the unit. Three metal cages (L 8.4 cm×Ø 8.0 cm×mesh 1.0 mm) for every mosquito species, each containing 20 3-4 day old individuals of mixed sex, were placed along the other three sides of the room, at a height of 1.80 m from the ground and at a distance of 0.45 m from the respective walls. During the test the room was kept closed and temperature and humidity were controlled (T 23-26° C., RH 49-61%).
(§7) The fan was switched on and left on for 8 continuous hours. The times needed to reach 10%, 50% and 90% insect knock-down (KT10, KT50 and KT90, respectively) were recorded.
as §2, §3, §4

Culex quinquefasciatus [4] = assay: as above; settings: 5 mg/unit; for % mortality 24 h: 24th hour from start of test; for % Knock-down 8 h: at end of 8th hour; for Knock-down time KT10 / Knock-down time KT50 / Knock-down time KT90: average of 3 cages
Method: as §5, §6, §7, §2, §3, §4

Blattella germanica = assay: Effectiveness of residual insecticide on surfaces (glazed tiles) against cockroaches (Example 6); settings: for Time to reach 100% knock-down followed by death: 50 mg/m^2 on glazed tiles
Method: Solutions of the compound of example 3 in acetone and, for comparison, of the reference compounds Transfluthrin and Metofluthrin were applied from a distance of 12 cm onto glazed tiles (Ostara model, 15×15 cm=225 cm^2) by means of a suitable glass sprayer, so as to obtain an applied amount of pure compound equal to 50 mg/m^2. After treatment the tiles were transferred to and maintained in a closed test room at controlled temperature and humidity (24-25° C., RH 50-60%). Glass rings (H 5.5 cm×Ø 9.5 cm), with their internal surface treated with talc, and each containing 5 cockroaches, were positioned at the centre of the tiles for each of the assessment times of 24 hours, 3, 7, 10 and 14 days following treatment. For each assessment day, the insects were maintained on the surface for 24 hours and the time (hours, minutes) necessary to attain 100% knock-down followed by death, or percentage knock-down at the end of 24 hours, were recorded.

C=CC=C[C@@H]1[C@@H](C(=O)OCc2c(F)c(F)cc(F)c2F)C1(C)C (mixture of isomers) [Example 3, 2,3,5,6-tetrafluorobenzyl(1R,3R)-3-((E/Z)-Buta-1,3-dienyl)-2,2-dimethylcyclopropane-1-carboxylate]
% mortality 24 h (Aedes aegypti [1]; insect exposure after 0 hours): 100% | % Knock-down 8 h (Aedes aegypti [1]; insect exposure after 0 hours): 100% | Knock-down time KT10 (Aedes aegypti [1]; insect exposure after 0 hours): 16 min | Knock-down time KT50 (Aedes aegypti [1]; insect exposure after 0 hours): 20 min | Knock-down time KT90 (Aedes aegypti [1]; insect exposure after 0 hours): 26 min | % mortality 24 h (Aedes aegypti [1]; insect exposure after 2 hours): 100% | % Knock-down 8 h (Aedes aegypti [1]; insect exposure after 2 hours): 100% | Knock-down time KT10 (Aedes aegypti [1]; insect exposure after 2 hours): 5 min | Knock-down time KT50 (Aedes aegypti [1]; insect exposure after 2 hours): 8 min | Knock-down time KT90 (Aedes aegypti [1]; insect exposure after 2 hours): 11 min | % mortality 24 h (Aedes aegypti [1]; insect exposure after 4 hours): 100% | % Knock-down 8 h (Aedes aegypti [1]; insect exposure after 4 hours): 100% | Knock-down time KT10 (Aedes aegypti [1]; insect exposure after 4 hours): 5 min | Knock-down time KT50 (Aedes aegypti [1]; insect exposure after 4 hours): 8 min | Knock-down time KT90 (Aedes aegypti [1]; insect exposure after 4 hours): 12 min | % mortality 24 h (Culex quinquefasciatus [2]; insect exposure after 0 hours): 100% | % Knock-down 8 h (Culex quinquefasciatus [2]; insect exposure after 0 hours): 100% | Knock-down time KT10 (Culex quinquefasciatus [2]; insect exposure after 0 hours): 23 min | Knock-down time KT50 (Culex quinquefasciatus [2]; insect exposure after 0 hours): 28 min | Knock-down time KT90 (Culex quinquefasciatus [2]; insect exposure after 0 hours): 35 min | % mortality 24 h (Culex quinquefasciatus [2]; insect exposure after 2 hours): 100% | % Knock-down 8 h (Culex quinquefasciatus [2]; insect exposure after 2 hours): 100% | Knock-down time KT10 (Culex quinquefasciatus [2]; insect exposure after 2 hours): 7 min | Knock-down time KT50 (Culex quinquefasciatus [2]; insect exposure after 2 hours): 11 min | Knock-down time KT90 (Culex quinquefasciatus [2]; insect exposure after 2 hours): 15 min | % mortality 24 h (Culex quinquefasciatus [2]; insect exposure after 4 hours): 100% | % Knock-down 8 h (Culex quinquefasciatus [2]; insect exposure after 4 hours): 100% | Knock-down time KT10 (Culex quinquefasciatus [2]; insect exposure after 4 hours): 8 min | Knock-down time KT50 (Culex quinquefasciatus [2]; insect exposure after 4 hours): 10 min | Knock-down time KT90 (Culex quinquefasciatus [2]; insect exposure after 4 hours): 14 min | % mortality 24 h (Aedes aegypti [3]; insect exposure after 0 hours): 100% | % Knock-down 8 h (Aedes aegypti [3]; insect exposure after 0 hours): 100% | Knock-down time KT10 (Aedes aegypti [3]; insect exposure after 0 hours): 16 min | Knock-down time KT50 (Aedes aegypti [3]; insect exposure after 0 hours): 19 min | Knock-down time KT90 (Aedes aegypti [3]; insect exposure after 0 hours): 25 min | % mortality 24 h (Aedes aegypti [3]; insect exposure after 2 hours): 100% | % Knock-down 8 h (Aedes aegypti [3]; insect exposure after 2 hours): 100% | Knock-down time KT10 (Aedes aegypti [3]; insect exposure after 2 hours): 4 min | Knock-down time KT50 (Aedes aegypti [3]; insect exposure after 2 hours): 6 min | Knock-down time KT90 (Aedes aegypti [3]; insect exposure after 2 hours): 9 min | % mortality 24 h (Aedes aegypti [3]; insect exposure after 4 hours): 100% | % Knock-down 8 h (Aedes aegypti [3]; insect exposure after 4 hours): 100% | Knock-down time KT10 (Aedes aegypti [3]; insect exposure after 4 hours): 4 min | Knock-down time KT50 (Aedes aegypti [3]; insect exposure after 4 hours): 6 min | Knock-down time KT90 (Aedes aegypti [3]; insect exposure after 4 hours): 11 min | % mortality 24 h (Culex quinquefasciatus [4]; insect exposure after 0 hours): 100% | % Knock-down 8 h (Culex quinquefasciatus [4]; insect exposure after 0 hours): 100% | Knock-down time KT10 (Culex quinquefasciatus [4]; insect exposure after 0 hours): 20 min | Knock-down time KT50 (Culex quinquefasciatus [4]; insect exposure after 0 hours): 23 min | Knock-down time KT90 (Culex quinquefasciatus [4]; insect exposure after 0 hours): 31 min | % mortality 24 h (Culex quinquefasciatus [4]; insect exposure after 2 hours): 100% | % Knock-down 8 h (Culex quinquefasciatus [4]; insect exposure after 2 hours): 100% | Knock-down time KT10 (Culex quinquefasciatus [4]; insect exposure after 2 hours): 6 min | Knock-down time KT50 (Culex quinquefasciatus [4]; insect exposure after 2 hours): 8 min | Knock-down time KT90 (Culex quinquefasciatus [4]; insect exposure after 2 hours): 12 min | % mortality 24 h (Culex quinquefasciatus [4]; insect exposure after 4 hours): 100% | % Knock-down 8 h (Culex quinquefasciatus [4]; insect exposure after 4 hours): 100% | Knock-down time KT10 (Culex quinquefasciatus [4]; insect exposure after 4 hours): 6 min | Knock-down time KT50 (Culex quinquefasciatus [4]; insect exposure after 4 hours): 10 min | Knock-down time KT90 (Culex quinquefasciatus [4]; insect exposure after 4 hours): 18 min | Time to reach 100% knock-down followed by death (Blattella germanica; 1 day after treatment): 15′ minutes | Time to reach 100% knock-down followed by death (Blattella germanica; 3 days after treatment): 15′ minutes | Time to reach 100% knock-down followed by death (Blattella germanica; 7 days after treatment): 15′ minutes | Time to reach 100% knock-down followed by death (Blattella germanica; 10 days after treatment): 15′ minutes | Time to reach 100% knock-down followed by death (Blattella germanica; 14 days after treatment): 15′ minutes | time of exposure to total knock-down (100%) (Blattella germanica; table 3): ≤ 15 min

C=CC=C[C@@H]1[C@@H](C(=O)OCc2coc(Cc3ccccc3)c2)C1(C)C (mixture of isomers) [Example 7, (2-benzyl-4-hydroxymethylfuryl) (1R,3R)-3-((E/Z)-Buta-1,3-dienyl)-2,2-dimethylcyclopropane-1-carboxylate]
% mortality 24 h (Aedes aegypti [1]; insect exposure after 0 hours): 79% | % Knock-down 8 h (Aedes aegypti [1]; insect exposure after 0 hours): 5% | % mortality 24 h (Aedes aegypti [1]; insect exposure after 2 hours): 79% | % Knock-down 8 h (Aedes aegypti [1]; insect exposure after 2 hours): 0% | % mortality 24 h (Aedes aegypti [1]; insect exposure after 4 hours): 65% | % Knock-down 8 h (Aedes aegypti [1]; insect exposure after 4 hours): 0% | % mortality 24 h (Culex quinquefasciatus [2]; insect exposure after 0 hours): 70% | % Knock-down 8 h (Culex quinquefasciatus [2]; insect exposure after 0 hours): 8% | % mortality 24 h (Culex quinquefasciatus [2]; insect exposure after 2 hours): 35% | % Knock-down 8 h (Culex quinquefasciatus [2]; insect exposure after 2 hours): 2% | % mortality 24 h (Culex quinquefasciatus [2]; insect exposure after 4 hours): 23% | % Knock-down 8 h (Culex quinquefasciatus [2]; insect exposure after 4 hours): 0%

C=CC=C[C@@H]1[C@@H](C(=O)OCc2c(F)c(F)c(COC)c(F)c2F)C1(C)C (mixture of isomers) [Example 8, 2,3,5,6-tetrafluoro-4-methoxymethyl benzyl(1R,3R)-3-((E/Z)-Buta-1,3-dienyl)-2,2-dimethylcyclopropane-1-carboxylate]
% mortality 24 h (Aedes aegypti [1]; insect exposure after 0 hours): 100% | % Knock-down 8 h (Aedes aegypti [1]; insect exposure after 0 hours): 100% | Knock-down time KT10 (Aedes aegypti [1]; insect exposure after 0 hours): 22 min | Knock-down time KT50 (Aedes aegypti [1]; insect exposure after 0 hours): 31 min | Knock-down time KT90 (Aedes aegypti [1]; insect exposure after 0 hours): 40 min | % mortality 24 h (Aedes aegypti [1]; insect exposure after 2 hours): 100% | % Knock-down 8 h (Aedes aegypti [1]; insect exposure after 2 hours): 100% | Knock-down time KT10 (Aedes aegypti [1]; insect exposure after 2 hours): 12 min | Knock-down time KT50 (Aedes aegypti [1]; insect exposure after 2 hours): 29 min | Knock-down time KT90 (Aedes aegypti [1]; insect exposure after 2 hours): 41 min | % mortality 24 h (Aedes aegypti [1]; insect exposure after 4 hours): 100% | % Knock-down 8 h (Aedes aegypti [1]; insect exposure after 4 hours): 100% | Knock-down time KT10 (Aedes aegypti [1]; insect exposure after 4 hours): 18 min | Knock-down time KT50 (Aedes aegypti [1]; insect exposure after 4 hours): 32 min | Knock-down time KT90 (Aedes aegypti [1]; insect exposure after 4 hours): 50 min | % mortality 24 h (Culex quinquefasciatus [2]; insect exposure after 0 hours): 83% | % Knock-down 8 h (Culex quinquefasciatus [2]; insect exposure after 0 hours): 100% | Knock-down time KT10 (Culex quinquefasciatus [2]; insect exposure after 0 hours): 35 min | Knock-down time KT50 (Culex quinquefasciatus [2]; insect exposure after 0 hours): 44 min | Knock-down time KT90 (Culex quinquefasciatus [2]; insect exposure after 0 hours): 70 min | % mortality 24 h (Culex quinquefasciatus [2]; insect exposure after 2 hours): 70% | % Knock-down 8 h (Culex quinquefasciatus [2]; insect exposure after 2 hours): 100% | Knock-down time KT10 (Culex quinquefasciatus [2]; insect exposure after 2 hours): 39 min | Knock-down time KT50 (Culex quinquefasciatus [2]; insect exposure after 2 hours): 50 min | Knock-down time KT90 (Culex quinquefasciatus [2]; insect exposure after 2 hours): 68 min | % mortality 24 h (Culex quinquefasciatus [2]; insect exposure after 4 hours): 61% | % Knock-down 8 h (Culex quinquefasciatus [2]; insect exposure after 4 hours): 100% | Knock-down time KT10 (Culex quinquefasciatus [2]; insect exposure after 4 hours): 39 min | Knock-down time KT50 (Culex quinquefasciatus [2]; insect exposure after 4 hours): 53 min | Knock-down time KT90 (Culex quinquefasciatus [2]; insect exposure after 4 hours): 66 min
